Measurements taken from patent US10369130B2, “Antibacterial compounds” (AZIENDE CHIMICHE RIUNITE ANGELINI FRANCESCO A.C.R.A.F. …, priority 2014, dated 2019).
Counter-ions that a name gives are not always drawn.

What was measured:
Format in all cases: biochemical
Details in all cases: single concentration (200, 100 or 50 μM), in duplicate, versus the positive control (vehicle)
DNA gyrase [1] = target: T1, DNA gyrase (Staphylococcus aureus, UniProt P0A0K8+P20831); test: DNA gyrase supercoiling assay (S. aureus)
T1 construct: purchased Inspiralis, UK
Protocol: (§1) The above compounds were tested for the inhibition of the enzyme DNA gyrase in a gyrase supercoiling assay and for the inhibition of the enzyme topoisomerase IV in a decatenation assay, in both Gram positive and Gram negative bacteria, according to the following methods.
(§2) Both the assays were carried out according to a set-up method modified from the article to Blanche F, et al. “Differential Behaviors of Staphylococcus aureus and Escherichia coli Type II DNA Topoisomerases”, Antimicrob.
(§3) The compounds were screened at single concentration (200, 100 or 50 μM), in duplicate.
(§4) Ciprofloxacin and novobiocin were used as reference compounds, at single concentration of 200 and 50 μM, respectively.
(§5) DNA Gyrase Supercoiling Assay.
(§6) Reagents from S. aureus and E. coli Gyrase Supercoiling Assay kits (Inspiralis, UK) were used. A master mix with a total volume sufficient for the number of reactions to perform was prepared with the following reagents: 5× assay buffer, relaxed pBR322 substrate (0.5 μg/reaction), RNase-DNase free water. Aliquotes of this mix were dispensed in each tube, then 10× compound stock solutions or vehicle control (DMSO), were added to each reaction tube.
(§7) Reaction was started with E. Coli (2 U/reaction) or S. aureus (1 U/reaction) gyrase enzyme addition.
(§8) A sample added with an equal volume of dilution buffer was used as negative control (without enzyme).
(§9) The reaction tubes were gentle vortexed and incubated 30 minutes at 37° C. Each reaction was stopped by adding 30 μl of Stop Buffer and 30 μl chloroform/isoamyl alcohol (24/1), briefly vortexed for 5-10 seconds and centrifuged at 20000×g for 2 minutes. Samples were loaded onto 1% agarose gel and subjected to electrophoresis for 1 hour at 80V constant voltage in TAE (40 mM Tris-acetate, 2 mM EDTA).
(§10) Data acquisition and analysis. Treatment of relaxed pBR322 with DNA gyrase converted the relaxed topoisomers (DNAs of different linking number) to the supercoiled form of the plasmid, which migrates faster on an agarose gel. An upper band might also be visible, which consists of open-circular (nicked) DNA which is present in the relaxed substrate but co-migrates with some of the relaxed topoisomers.
(§11) Bands were visualized by ethidium bromide staining (dil 1:20000) for 30 minutes followed by destaining in distilled water for 10 minutes.
(§12) In order to evaluate the compounds activity on the enzyme, the bands of supercoiled DNAs in the gel were photographed by a digital imaging system ImageQuant LAS 4000 (GE Healthcare) according to manufacturer's instructions.
(§13) The fluorescent intensity of each band was analysed by ImageQuant TL software and it was expressed as volume (volume of the uncalibrated quantity of material in the image feature after subtraction of the background intensity by using rolling ball method).
(§14) Each band intensity was compared, as percentage, to vehicle sample band intensity, which served as positive control, on the same gel.
(§15) Inhibitory activity was expressed as percent of inhibition versus the positive control.

DNA gyrase [2] = target: T2, DNA gyrase (Escherichia coli, UniProt P0AES4+P0AES6); test: DNA gyrase supercoiling assay (E. coli)
T2 construct: purchased Inspiralis, UK
Protocol: as §1, §2, §3, §4, §5, §6, §7, §8, §9, §10, §11, §12, §13, §14, §15

Topoisomerase IV [3] = target: T3, Topoisomerase IV (Staphylococcus aureus, UniProt P0C1S7+P0C1U9); test: Topoisomerase IV decatenation assay (S. aureus)
T3 construct: purchased Inspiralis, UK
Protocol: as §1, §2, §3, §4
(§16) Topoisomerase IV Decatenation Assay
(§17) S. aureus and E. coli Topoisomerase IV decatenation kits (Inspiralis, UK) were used. A master mix with a total volume sufficient for the number of reactions to perform was prepared with the following reagents: 5× assay buffer (50 mM HEPES-KOH (pH 7.6), 100 mM potassium glutamate, 10 mM magnesium acetate, 10 mM DTT, 1 mM ATP, 50 μg/ml albumin), kDNA substrate (200 ng/reaction), RNase-DNase free water. Aliquots of this mix were dispensed in each tube, then 10× compound stock solutions or vehicle control (DMSO), were added in each reaction tube.
(§18) Reaction was started with Topoisomerase IV enzyme (0.5 U/reaction) addition.
as §8
(§19) The reaction tubes were gentle vortexed and incubated 30 minutes at 37° C. Each reaction was stopped by adding 30 μl of Stop Buffer and 30 μl of chloroform/isoamyl alcohol (24/1), briefly vortexed for 5-10 seconds and centrifuged at 20000×g for 2 minutes. Samples taken from the upper phase were loaded into 1% agarose gel and subjected to electrophoresis for 1 hour at 80V constant voltage in TAE (40 mM Tris-acetate, 2 mM EDTA).
(§20) Data acquisition and analysis. Due to the high molecular mass, kDNA could not enter an agarose gel under normal electrophoresis conditions, but remained in the wells. In the presence of Topo IV topoisomerase mini-circles (2.5 Kb) were released from kDNA by decatenation and were quickly and easily resolved in the gel at relatively high voltages.
as §11
(§21) For single concentration screening assay, in order to evaluate the compounds activity on the enzymes, the bands of decatenated DNAs in the gel were photographed by a digital imaging system ImageQuant LAS 4000 (GE Healthcare) according to manufacturer's instructions.
(§22) The fluorescent intensity of each band was analyzed by ImageQuant TL software and it was expressed as volume (volume of the uncalibrated quantity of material in the image feature after subtraction of the background intensity by using rolling ball method).
as §14, §15

Topoisomerase IV [4] = target: T4, Topoisomerase IV (Escherichia coli, UniProt P0AFI2+P20083); test: Topoisomerase IV decatenation assay (E. coli)
T4 construct: purchased Inspiralis, UK
Protocol: as §1, §2, §3, §4, §16, §17, §18, §8, §19, §20, §11, §21, §22, §14, §15

T1 sequence (P20831 whole entry): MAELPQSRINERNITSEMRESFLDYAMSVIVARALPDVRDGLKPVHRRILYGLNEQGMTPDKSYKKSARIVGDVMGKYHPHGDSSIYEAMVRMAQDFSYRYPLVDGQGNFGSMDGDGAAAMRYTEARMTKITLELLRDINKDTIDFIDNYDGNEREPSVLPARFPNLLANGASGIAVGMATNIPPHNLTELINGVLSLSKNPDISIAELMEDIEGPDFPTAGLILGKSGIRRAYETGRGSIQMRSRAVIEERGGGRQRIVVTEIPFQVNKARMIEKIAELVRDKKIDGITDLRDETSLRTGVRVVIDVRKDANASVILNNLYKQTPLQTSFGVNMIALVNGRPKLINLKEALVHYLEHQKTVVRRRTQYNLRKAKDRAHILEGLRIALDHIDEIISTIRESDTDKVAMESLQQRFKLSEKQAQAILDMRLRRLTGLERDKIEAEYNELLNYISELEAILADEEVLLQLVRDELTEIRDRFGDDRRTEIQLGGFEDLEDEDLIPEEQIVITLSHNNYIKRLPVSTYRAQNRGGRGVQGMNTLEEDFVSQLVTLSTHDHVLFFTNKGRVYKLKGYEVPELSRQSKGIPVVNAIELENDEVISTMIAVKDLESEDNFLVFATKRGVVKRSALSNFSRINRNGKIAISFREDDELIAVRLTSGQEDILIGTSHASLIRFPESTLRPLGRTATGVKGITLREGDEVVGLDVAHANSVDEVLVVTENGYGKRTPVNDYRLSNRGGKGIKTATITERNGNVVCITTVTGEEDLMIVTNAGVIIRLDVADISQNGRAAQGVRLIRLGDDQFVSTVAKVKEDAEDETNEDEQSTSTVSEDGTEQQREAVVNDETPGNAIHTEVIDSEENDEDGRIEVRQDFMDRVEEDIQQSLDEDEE
T1 sequence (P0A0K8 whole entry): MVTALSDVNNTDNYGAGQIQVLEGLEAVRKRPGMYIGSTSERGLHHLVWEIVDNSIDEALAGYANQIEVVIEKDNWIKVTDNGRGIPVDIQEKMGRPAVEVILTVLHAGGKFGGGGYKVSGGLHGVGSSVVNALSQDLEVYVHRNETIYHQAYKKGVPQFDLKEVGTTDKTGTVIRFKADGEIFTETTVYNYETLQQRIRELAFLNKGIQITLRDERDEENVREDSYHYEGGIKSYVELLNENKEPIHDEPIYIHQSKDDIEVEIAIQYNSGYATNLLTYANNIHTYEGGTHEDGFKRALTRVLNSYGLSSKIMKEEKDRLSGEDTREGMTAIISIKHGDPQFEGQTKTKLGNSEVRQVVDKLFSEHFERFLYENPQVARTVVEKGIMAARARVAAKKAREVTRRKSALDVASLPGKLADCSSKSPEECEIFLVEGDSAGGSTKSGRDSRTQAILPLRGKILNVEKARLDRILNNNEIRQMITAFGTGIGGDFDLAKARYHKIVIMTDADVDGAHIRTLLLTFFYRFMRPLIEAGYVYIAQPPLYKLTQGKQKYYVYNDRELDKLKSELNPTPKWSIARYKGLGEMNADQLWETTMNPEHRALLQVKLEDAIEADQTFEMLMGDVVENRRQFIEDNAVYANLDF
T3 sequence (P0C1S7 whole entry): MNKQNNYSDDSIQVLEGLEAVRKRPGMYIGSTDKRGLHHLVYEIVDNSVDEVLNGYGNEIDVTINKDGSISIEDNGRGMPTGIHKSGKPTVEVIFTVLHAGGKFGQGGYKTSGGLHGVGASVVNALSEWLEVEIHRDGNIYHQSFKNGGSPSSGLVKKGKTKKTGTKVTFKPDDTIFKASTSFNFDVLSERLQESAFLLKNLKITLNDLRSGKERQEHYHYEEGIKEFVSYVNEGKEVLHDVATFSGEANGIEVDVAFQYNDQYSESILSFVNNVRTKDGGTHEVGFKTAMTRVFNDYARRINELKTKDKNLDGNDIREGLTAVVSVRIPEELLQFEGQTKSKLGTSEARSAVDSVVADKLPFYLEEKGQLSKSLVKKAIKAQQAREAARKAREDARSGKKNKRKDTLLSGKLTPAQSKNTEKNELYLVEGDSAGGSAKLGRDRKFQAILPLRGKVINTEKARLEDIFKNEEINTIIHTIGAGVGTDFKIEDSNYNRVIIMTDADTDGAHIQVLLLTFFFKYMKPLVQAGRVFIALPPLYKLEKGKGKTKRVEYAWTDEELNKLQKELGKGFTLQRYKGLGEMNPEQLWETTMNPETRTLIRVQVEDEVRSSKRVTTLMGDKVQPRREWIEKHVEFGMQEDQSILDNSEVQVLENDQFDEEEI
T3 sequence (P0C1U9 whole entry): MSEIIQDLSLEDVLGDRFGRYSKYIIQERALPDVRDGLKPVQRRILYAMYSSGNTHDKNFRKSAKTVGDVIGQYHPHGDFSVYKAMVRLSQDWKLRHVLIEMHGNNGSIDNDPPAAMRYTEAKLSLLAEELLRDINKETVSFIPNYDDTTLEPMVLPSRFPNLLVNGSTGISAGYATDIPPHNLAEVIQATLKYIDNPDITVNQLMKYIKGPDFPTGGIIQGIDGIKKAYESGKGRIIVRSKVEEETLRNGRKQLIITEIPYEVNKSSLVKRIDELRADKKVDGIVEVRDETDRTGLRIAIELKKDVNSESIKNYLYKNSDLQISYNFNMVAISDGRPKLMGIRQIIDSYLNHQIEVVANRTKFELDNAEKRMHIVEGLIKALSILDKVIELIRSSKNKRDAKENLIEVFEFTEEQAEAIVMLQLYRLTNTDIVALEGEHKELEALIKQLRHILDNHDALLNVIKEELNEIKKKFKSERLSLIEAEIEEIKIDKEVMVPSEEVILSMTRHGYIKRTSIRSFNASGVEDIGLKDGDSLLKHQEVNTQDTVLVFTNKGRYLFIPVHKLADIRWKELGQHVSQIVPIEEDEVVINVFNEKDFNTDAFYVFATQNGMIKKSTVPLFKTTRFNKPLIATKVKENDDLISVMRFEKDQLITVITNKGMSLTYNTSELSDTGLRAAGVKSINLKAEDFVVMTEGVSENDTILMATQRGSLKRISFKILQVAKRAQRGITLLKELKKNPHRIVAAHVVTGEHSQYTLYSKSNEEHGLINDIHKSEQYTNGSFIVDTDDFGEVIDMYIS
T4 sequence (P20083 whole entry): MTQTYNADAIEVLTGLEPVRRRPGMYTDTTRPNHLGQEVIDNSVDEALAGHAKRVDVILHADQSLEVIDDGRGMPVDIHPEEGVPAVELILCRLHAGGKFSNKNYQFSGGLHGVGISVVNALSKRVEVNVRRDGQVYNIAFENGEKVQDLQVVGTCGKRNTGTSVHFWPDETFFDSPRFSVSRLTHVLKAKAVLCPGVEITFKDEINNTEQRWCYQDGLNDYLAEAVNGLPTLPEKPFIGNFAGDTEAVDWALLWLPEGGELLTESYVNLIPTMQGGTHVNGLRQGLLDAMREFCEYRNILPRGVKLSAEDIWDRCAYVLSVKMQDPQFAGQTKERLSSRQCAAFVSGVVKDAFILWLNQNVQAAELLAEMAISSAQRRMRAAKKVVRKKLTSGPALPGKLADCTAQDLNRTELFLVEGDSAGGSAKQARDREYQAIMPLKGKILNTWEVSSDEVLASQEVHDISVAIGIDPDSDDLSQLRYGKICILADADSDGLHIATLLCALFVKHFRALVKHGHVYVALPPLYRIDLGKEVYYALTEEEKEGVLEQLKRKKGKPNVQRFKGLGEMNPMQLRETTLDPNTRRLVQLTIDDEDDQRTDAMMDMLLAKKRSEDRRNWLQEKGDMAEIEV
T4 sequence (P0AFI2 whole entry): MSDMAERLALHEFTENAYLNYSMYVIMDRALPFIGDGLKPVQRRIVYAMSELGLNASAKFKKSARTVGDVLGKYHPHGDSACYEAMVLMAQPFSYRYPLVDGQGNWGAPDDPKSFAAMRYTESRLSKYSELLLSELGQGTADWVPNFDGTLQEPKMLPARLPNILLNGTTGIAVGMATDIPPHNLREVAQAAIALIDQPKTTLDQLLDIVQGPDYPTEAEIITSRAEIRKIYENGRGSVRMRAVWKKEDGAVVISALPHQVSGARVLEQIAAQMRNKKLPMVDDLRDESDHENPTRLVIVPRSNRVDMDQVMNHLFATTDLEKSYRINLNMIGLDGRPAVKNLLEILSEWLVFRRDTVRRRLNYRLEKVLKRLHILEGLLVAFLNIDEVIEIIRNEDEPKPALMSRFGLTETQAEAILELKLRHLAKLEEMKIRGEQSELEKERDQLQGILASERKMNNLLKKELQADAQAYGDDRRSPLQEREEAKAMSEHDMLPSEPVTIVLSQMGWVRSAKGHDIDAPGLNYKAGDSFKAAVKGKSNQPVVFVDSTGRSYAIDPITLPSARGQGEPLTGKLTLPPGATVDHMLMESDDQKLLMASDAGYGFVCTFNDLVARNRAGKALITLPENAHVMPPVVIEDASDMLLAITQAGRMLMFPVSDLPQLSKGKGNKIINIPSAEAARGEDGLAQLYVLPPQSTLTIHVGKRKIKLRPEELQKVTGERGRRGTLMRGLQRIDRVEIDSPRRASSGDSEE

O=C(O)C[C@@H](NC[C@H](O)CN1CCN(c2nccc3ccc(F)cc23)CC1)c1ccccc1 [Compound 142, (3R)-3-({(2S)-3-[4-(7-fluoroisoquinolin-1-yl)piperazin-1-yl]-2-hydroxypropyl}amino)-3-phenylpropanoic acid]
% inhibition DNA gyrase (DNA gyrase [1]): 52%
% inhibition DNA gyrase (DNA gyrase [2]): n/a (n/a = not active)
% inhibition Topo IV (Topoisomerase IV [3]): n/a (n/a = not active)
% inhibition Topo IV (Topoisomerase IV [4]): n/a (n/a = not active)

Cc1cc2ccccc2c(N2CCN(CCCNC(=O)c3cccnc3)CC2)n1 [Compound 21, N-{3-[4-(3-methylisoquinolin-1-yl)piperazin-1-yl]propyl}pyridine-3-carboxamide hydrochloride]
% inhibition DNA gyrase (DNA gyrase [1]): 67%
% inhibition DNA gyrase (DNA gyrase [2]): n/a (n/a = not active)
% inhibition Topo IV (Topoisomerase IV [3]): n/a (n/a = not active)
% inhibition Topo IV (Topoisomerase IV [4]): n/a (n/a = not active)

O=c1cc(NC2CCCC(N3CCN(c4nccc5ccccc45)CC3)C2)c2ccccc2o1 (stereo not shown) [Compound 74, 4-({3-[4-(isoquinolin-1-yl)piperazin-1-yl]cyclohexyl}amino)-2H-chromen-2-one hydrochloride]
% inhibition DNA gyrase (DNA gyrase [1]): 61%
% inhibition DNA gyrase (DNA gyrase [2]): 65%
% inhibition Topo IV (Topoisomerase IV [3]): n/a (n/a = not active)
% inhibition Topo IV (Topoisomerase IV [4]): n/a (n/a = not active)

O=C1CN(c2nccc3ccccc23)CCN1CCCNc1cc(=O)oc2ccccc12 [Compound 71, 4-(isoquinolin-1-yl)-1-{3-[(2-oxo-2H-chromen-4-yl)amino]propyl}piperazin-2-one hydrochloride]
% inhibition DNA gyrase (DNA gyrase [1]): n/a (n/a = not active)
% inhibition DNA gyrase (DNA gyrase [2]): 56%
% inhibition Topo IV (Topoisomerase IV [3]): n/a (n/a = not active)
% inhibition Topo IV (Topoisomerase IV [4]): n/a (n/a = not active)

O=C(NCCCN1CCN(c2nccc3ccccc23)CC1)c1ccccc1 [Compound 3, N-{3-[4-(isoquinolin-1-yl)piperazin-1-yl]propyl}benzamide hydrochloride]
% inhibition DNA gyrase (DNA gyrase [1]): n/a (n/a = not active)
% inhibition DNA gyrase (DNA gyrase [2]): 59%
% inhibition Topo IV (Topoisomerase IV [3]): n/a (n/a = not active)
% inhibition Topo IV (Topoisomerase IV [4]): n/a (n/a = not active)

O=c1cc(NCCCN2CCN(c3nccc4ccccc34)CC2CC(F)(F)F)c2ccccc2o1 (stereo not shown) [Compound 83, 4-({3-[4-(isoquinolin-1-yl)-2-(2,2,2-trifluoroethyl)piperazin-1-yl]propyl}amino)-2H-chromen-2-one hydrochloride]
% inhibition DNA gyrase (DNA gyrase [1]): n/a (n/a = not active)
% inhibition DNA gyrase (DNA gyrase [2]): 69%
% inhibition Topo IV (Topoisomerase IV [3]): n/a (n/a = not active)
% inhibition Topo IV (Topoisomerase IV [4]): n/a (n/a = not active)

O=C(CN1CCC(Nc2cc(=O)oc3ccccc23)CC1)NCc1nccc2ccccc12 [Compound 118, N-(isoquinolin-1-ylmethyl)-2-{4-[(2-oxo-2H-chromen-4-yl)amino]piperidin-1-yl}acetamide]
% inhibition DNA gyrase (DNA gyrase [1]): n/a (n/a = not active)
% inhibition DNA gyrase (DNA gyrase [2]): 78%
% inhibition Topo IV (Topoisomerase IV [3]): n/a (n/a = not active)
% inhibition Topo IV (Topoisomerase IV [4]): n/a (n/a = not active)

O=c1cc(NCCCN2CCN(c3cccc4ccccc34)CC2)c2ccccc2o1 [Compound 50, 4-({3-[4-(naphthalen-1-yl)piperazin-1-yl]propyl}amino)-2H-chromen-2-one hydrochloride]
% inhibition DNA gyrase (DNA gyrase [1]): n/a (n/a = not active)
% inhibition DNA gyrase (DNA gyrase [2]): 92%
% inhibition Topo IV (Topoisomerase IV [3]): n/a (n/a = not active)
% inhibition Topo IV (Topoisomerase IV [4]): n/a (n/a = not active)

Cc1ccc2c(N3CCN(CCCNC(=O)c4cccnc4)CC3)nccc2c1 [Compound 35, N-{3-[4-(6-methylisoquinolin-1-yl)piperazin-1-yl]propyl}pyridine-3-carboxamide]
% inhibition DNA gyrase (DNA gyrase [1]): 78%
% inhibition DNA gyrase (DNA gyrase [2]): n/a (n/a = not active)
% inhibition Topo IV (Topoisomerase IV [3]): n/a (n/a = not active)
% inhibition Topo IV (Topoisomerase IV [4]): n/a (n/a = not active)

O=c1cc(NCCCN2CCN(c3nccc4ccc(F)cc34)CC2)c2c(o1)CCNC2 [Compound 122, 4-({3-[4-(7-fluoroisoquinolin-1-yl)piperazin-1-yl]propyl}amino)-5,6,7,8-tetrahydro-2H-pyrano[3,2-c]pyridin-2-one hydrochloride]
% inhibition DNA gyrase (DNA gyrase [1]): n/a (n/a = not active)
% inhibition DNA gyrase (DNA gyrase [2]): 58%
% inhibition Topo IV (Topoisomerase IV [3]): n/a (n/a = not active)
% inhibition Topo IV (Topoisomerase IV [4]): n/a (n/a = not active)

O=C(NCCCN1CCN(c2nccc3cc(F)ccc23)CC1)c1cccnc1 [Compound 45, N-{3-[4-(6-fluoroisoquinolin-1-yl)piperazin-1-yl]propyl}pyridine-3-carboxamide hydrochloride]
% inhibition DNA gyrase (DNA gyrase [1]): 81%
% inhibition DNA gyrase (DNA gyrase [2]): n/a (n/a = not active)
% inhibition Topo IV (Topoisomerase IV [3]): n/a (n/a = not active)
% inhibition Topo IV (Topoisomerase IV [4]): n/a (n/a = not active)

O=c1cc(NCCCN2CCN(c3nccc4ccccc34)CC2)cc(-c2ccccc2)o1 [Compound 60, 4-({3-[4-(isoquinolin-1-yl)piperazin-1-yl]propyl}amino)-6-phenyl-2H-pyran-2-one hydrochloride]
% inhibition DNA gyrase (DNA gyrase [1]): 89%
% inhibition DNA gyrase (DNA gyrase [2]): 100%
% inhibition Topo IV (Topoisomerase IV [3]): n/a (n/a = not active)
% inhibition Topo IV (Topoisomerase IV [4]): n/a (n/a = not active)

O=C(NCCN1CCN(c2nccc3ccccc23)CC1)c1cc(=O)oc2ccccc12 [Compound 75, N-{2-[4-(isoquinolin-1-yl)piperazin-1-yl]ethyl}-2-oxo-2H-chromene-4-carboxamide hydrochloride]
% inhibition DNA gyrase (DNA gyrase [1]): 61%
% inhibition DNA gyrase (DNA gyrase [2]): 69%
% inhibition Topo IV (Topoisomerase IV [3]): n/a (n/a = not active)
% inhibition Topo IV (Topoisomerase IV [4]): n/a (n/a = not active)

O=C(NCCCN1CCN(c2nccc3ncccc23)CC1)c1cccnc1 [Compound 43, N-{3-[4-(1,6-naphthyridin-5-yl)piperazin-1-yl]propyl}pyridine-3-carboxamide hydrochloride]
% inhibition DNA gyrase (DNA gyrase [1]): 100%
% inhibition DNA gyrase (DNA gyrase [2]): n/a (n/a = not active)
% inhibition Topo IV (Topoisomerase IV [3]): n/a (n/a = not active)
% inhibition Topo IV (Topoisomerase IV [4]): n/a (n/a = not active)

O=C(O)C[C@@H](NC[C@@H](O)CN1CCN(c2nccc3ccc(F)cc23)CC1)c1ccccc1 [Compound 141, (3R)-3-({(2R)-3-[4-(7-fluoroisoquinolin-1-yl)piperazin-1-yl]-2-hydroxypropyl}amino)-3-phenylpropanoic acid]
% inhibition DNA gyrase (DNA gyrase [1]): 65%
% inhibition DNA gyrase (DNA gyrase [2]): n/a (n/a = not active)
% inhibition Topo IV (Topoisomerase IV [3]): n/a (n/a = not active)
% inhibition Topo IV (Topoisomerase IV [4]): n/a (n/a = not active)

O=C(O)C1CN(c2nccc3ccccc23)CCN1CCCNc1cc(=O)oc2ccccc12 (stereo not shown) [Compound 82, 4-(isoquinolin-1-yl)-1-{3-[(2-oxo-2H-chromen-4-yl)amino]propyl}piperazine-2-carboxylic acid hydrochloride]
% inhibition DNA gyrase (DNA gyrase [1]): 82%
% inhibition DNA gyrase (DNA gyrase [2]): 85%
% inhibition Topo IV (Topoisomerase IV [3]): n/a (n/a = not active)
% inhibition Topo IV (Topoisomerase IV [4]): n/a (n/a = not active)
